As a reminder, the solubility is the concentration that dissolves in the medium under given conditions. Low values mean a poorly soluble substance, high ones a readily soluble substance. The aqueous solubility is the dissolved amount per volume that the medium holds. The pKa is the negative logarithm of the acid dissociation constant.

Structures are written as SMILES. Converted amounts (≈) assume the structure as drawn.

Series [1] is described as follows: Hansen solubility parameters estimated with HSPiP program. The note with it: HSP parameters of ENE5 based on composition.
Series [2] can be described thus: Experimental saturated solubility of ENO in excipients. The format is physicochemical. The note with it: thermodynamic from solid.
For series [3] the following is noted: cited from earlier work.
For series [4] the following is noted: cited from earlier work. The source holds these as a separate data set.

As to `CN1CCCC1=O` [NMP, N-methyl-2-pyrrolidone], in series [1], the “δd, share of the component in ENE5 based on composition” value was 8.1; the “δh, share of the component in ENE5 based on composition” value is given as 3.33; the “δp, share of the component in ENE5 based on composition” value is recorded as 4.46.

On to `CCn1cc(C(=O)O)c(=O)c2cc(F)c(N3CCNCC3)nc21` [ENO, Enoxacin], for which the solubility at 72 h in series [2] (C90, 40 °C) worked out at 2800 µg/mL (≈ 8.74 mM); in series [2] (Miglyol 812N, 40 °C, oil or lipid) it was 5400 µg/mL (≈ 16.9 mM); in series [2] (NMP (N-methyl-2-pyrrolidone), 40 °C) it was 6700 µg/mL (≈ 20.9 mM); in series [2] (Tween 80, 40 °C) it was 1500 µg/mL (≈ 4.68 mM). Besides, the aqueous solubility in series [3] (an experimental value) is 290 µg/mL (≈ 0.905 mM). Moreover, the pKa in series [3] is 5.5.

On to `CCCCCCCC/C=C\CCCCCCCC(=O)OCCOCC(OCCO)C1OCC(OCCO)C1OCCO` (stereo not shown) [Tween 80], for which, in series [1], the “δd, share of the component in ENE5 based on composition” value is on record as 2.52; the “δh, share of the component in ENE5 based on composition” value is reported as 1.425; the “δp, share of the component in ENE5 based on composition” value is listed as 0.975.

Regarding `CCOCCOCCO` [Transcutol-HP], in series [4], the HLB was 14.5.

The values are drawn from publication PMC10061639 (ACS Omega, 2023).
